Reference: patent EP2354120A1, “Synthesis of acyloxyalkyl carbamate prodrugs and intermediates thereof” (XenoPort, Inc., priority 2003, dated 2005)
Like-named read-outs stand apart in the source and are kept apart here.

Tests used:
Caco-2 cells = settings: human, Caco-2, 200 uM
Description: Caco-2 cells obtained from continuous culture (passage less than 28) were seeded at high density onto Transwell polycarbonate filters. […] Inserts were placed in 12 or 24 well plates containing buffer and incubated for 30 min at 37C°. Prodrug (200 µM) was added to the apical or basolateral compartment (donor) and concentrations of prodrug and/or released parent drug in the opposite compartment (receiver) were determined at intervals over 1 hour using LC/MS/MS. Values of apparent permeability (Papp) were calculated using the equation: Papp = Vr (dC/dt)//(ACo) [formula]
Here Vr is the volume of the receiver compartment in mL; dC/dt is the total flux of prodrug and parent drug (µM/s), determined from the slope of the plot of concentration in the receiver compartment versus time; Co is the initial concentration of prodrug in µM; A is the surface area of the membrane in cm^2.

pancreatin = type: in vitro ADME, porcine; settings: 5 µM
Description: The reaction was stopped by addition of 2 volumes of methanol.

[1] = type: in vitro ADME; settings: Human Liver S9 (0.5 mg/mL), 2.0 µM, NADPH, 37°C, after 60 min
Description: (§1) The stabilities of prodrugs were evaluated in one or more in vitro systems using a variety of tissue preparations following methods known in the art. […] Tissues were obtained from commercial sources (e.g., Pel-Freez Biologicals, Rogers, AR, or GenTest Corporation, Woburn, MA). […] Each preparation was incubated with test compound at 37°C for one hour. Aliquots (50 µL) were removed at 0, 30, and 60 min and quenched with 0.1% trifluoroacetic acid in acetonitrile. Samples were then centrifuged and analyzed by LC/MS/MS (see Example 86 below for method details). […] After centrifugation at 14,000 rpm for 10 min, the supernatant was removed and analyzed by LC/MS/MS. • Caco-2 Homogenate S9 Stability: Caco-2 cells were grown for 21 days prior to harvesting. Culture medium was removed and cell monolayers were rinsed and scraped off into ice-cold 10 mM sodium phosphate/0.15 M potassium chloride, pH 7.4. Cells were lysed by sonication at 4°C using a probe sonicator. Lysed cells were then transferred into 1.5 mL centrifuge vials and centrifuged at 9000 g for 20 min at 4°C. […]
(§2) For stability studies, prodrug (5 µM) was incubated in Caco-2 homogenate S9 fraction (0.5 mg protein per mL) for 60 min at 37°C. Concentrations of intact prodrug and released baclofen were determined at zero time and 60 minutes using LC/MS/MS.

[2] = type: in vitro ADME; settings: Human Plasma, 2.0 µM, 37°C, after 60 min
Description: as §1, §2

[3] = type: in vitro ADME; settings: Caco-2 S9 (0.5 mg protein per mL), 5 µM, 37°C, after 60 min
Description: as §1, §2

[4] = type: physicochemical; settings: after 60 min
Description: The chemical stability of prodrugs in aqueous buffers at pH's of 2.0, 7.4 and 8.0 were also measured. […] Each preparation was incubated with test compound at 37°C for one hour. Aliquots (50 µL) were removed at 0, 30, and 60 min and quenched with 0.1% trifluoroacetic acid in acetonitrile. Samples were then centrifuged and analyzed by LC/MS/MS (see Example 86 below for method details).

[5] = type: in vitro ADME; settings: Rat Plasma, 2.0 µM, 37°C, after 60 min
Description: as §1, §2

[6] = type: in vitro ADME; settings: Rat Liver S9 (0.5 mg/mL), 2.0 µM, NADPH, 37°C, after 60 min
Description: as §1, §2

[7] = oral; 2 mg t.i.d R-baclofen equivalent to 10 mg t.i.d. racemic baclofen; cited from earlier work
[8] = 1 % (w/v) pancreatin, pH 7.5, 37 °C, after 60 min

CC(=O)OCOC(=O)NC[C@H](CC(=O)[O-])c1ccc(Cl)cc1.[Na+] [(10), Sodium 4-[(Acetoxymethoxy)carbonylamino]-(3R)-(4-chlorophenyl)-butanoate]
Ratio A-B/B-A (Caco-2 cells): 1.2

O=C([O-])C[C@@H](CNC(=O)OCOC(=O)c1ccccc1)c1ccc(Cl)cc1.[Na+] [(12)]
Ratio A-B/B-A (Caco-2 cells): 5.9

O=C(O)C[C@@H](CNC(=O)OCOC(=O)C1CCCCC1)c1ccc(Cl)cc1 [(14), Sodium 4-[(Cyclohexanecarboxymethoxy)carbonylaminol-(3R)-(4-chlorophenyl)-butanoate]
% of Baclofen Released (pancreatin; [8]): 101% | % of Prodrug Remaining (pancreatin; [8]): 2% | Ratio A-B/B-A (Caco-2 cells): 4.1

CCCC(=O)OCOC(=O)NC[C@H](CC(=O)O)c1ccc(Cl)cc1 [(16), Sodium 4-[(Butanoyloxymethoxy)carbonylamino]-(3R)-(4-chlorophenyl)-butanoate]
% of Baclofen Released (pancreatin; pig, pancreatin, 1 h, pH 7.5): 84% | % of Prodrug Remaining (pancreatin; pig, pancreatin, 1 h, pH 7.5): 1%

CC(C)C(=O)OCOC(=O)NC[C@H](CC(=O)O)c1ccc(Cl)cc1 [(18), Sodium 4-[(Isobutanoyloxymethoxy)carbonylamino]-(3R)-(4-chlorophenyl)-butanoate]
% of Baclofen Released (pancreatin; pig, pancreatin, 1 h, pH 7.5): 91% | % of Prodrug Remaining (pancreatin; pig, pancreatin, 1 h, pH 7.5): 2%

CCCC(=O)OC(OC(=O)NC[C@H](CC(=O)O)c1ccc(Cl)cc1)C(C)C (stereo partly drawn) [(27), Sodium 4-[(1-Butanoyloxyisobutoxy)carbonylamino]-(3R)-(4-chlorophenyl)-butanoate]
% of Baclofen Released (pancreatin; [8]): 9% | % of Prodrug Remaining (pancreatin; [8]): 71% | Ratio A-B/B-A (Caco-2 cells): 6.9

CC(=O)OC(C)OC(=O)NC[C@H](CC(=O)O)c1ccc(Cl)cc1 (stereo partly drawn) [(30), Sodium 4-[(1-Acetoxyethoxy)carbonylamino]-(3R)-(4-chlorophenyl)-butanoate]
% of Baclofen Released (pancreatin; pig, pancreatin, 1 h, pH 7.5): 9% | % of Prodrug Remaining (pancreatin; pig, pancreatin, 1 h, pH 7.5): 90%

CCCC(=O)OC(C)OC(=O)NC[C@H](CC(=O)[O-])c1ccc(Cl)cc1.[Na+] (stereo partly drawn) [(32), Sodium 4-[(1-Butanoyloxyethoxy)carbonylamino]-(3R)-(4-chlorophenyl)-butanoate]
Ratio A-B/B-A (Caco-2 cells): 7.6

CC(OC(=O)NC[C@H](CC(=O)O)c1ccc(Cl)cc1)OC(=O)C1CCCCC1 (stereo partly drawn) [(38), Sodium 4-[(1-Cyclohexylcarbonyloxyethoxy)carbonylamino]-(3R)-(4-chlorophenyl)-butanoate]
Ratio A-B/B-A (Caco-2 cells): 1.1

CC(OC(=O)NC[C@H](CC(=O)[O-])c1ccc(Cl)cc1)OC(=O)c1ccccc1.[Na+] (some centres unmarked) [(40)]
% of Baclofen Released [1]: 105% | % of Prodrug Remaining [1]: 1% | % of Baclofen Released [2]: 2% | % of Prodrug Remaining [2]: 101% | % of Baclofen Released [3]: 85% | % of Prodrug Remaining [3]: 15% | % of Baclofen Released ([4]; aqueous buffer pH 2.0, 37°C): 0% | % of Prodrug Remaining ([4]; aqueous buffer pH 2.0, 37°C): 103% | % of Baclofen Released ([4]; aqueous buffer pH 7.4, 37°C): 0% | % of Prodrug Remaining ([4]; aqueous buffer pH 7.4, 37°C): 100% | % of Baclofen Released ([4]; aqueous buffer pH 8.0, 37°C): 2% | % of Prodrug Remaining ([4]; aqueous buffer pH 8.0, 37°C): 107% | % of Baclofen Released (pancreatin; pig, pancreatin, 1 h, pH 7.5): 58% | % of Prodrug Remaining (pancreatin; pig, pancreatin, 1 h, pH 7.5): 43% | % of Baclofen Released [5]: 17% | % of Prodrug Remaining [5]: 72% | % of Baclofen Released [6]: 96% | % of Prodrug Remaining [6]: 8%

CC(C)C(OC(=O)NC[C@H](CC(=O)O)c1ccc(Cl)cc1)OC(=O)C(C)(C)C (stereo partly drawn) [(43), Sodium 4-[(1-Pivaloyloxyisobutoxy)carbonylamino]-(3R)-(4-chlorophenyl)-butanoate]
% of Baclofen Released (pancreatin; [8]): 4% | % of Prodrug Remaining (pancreatin; [8]): 82% | Ratio A-B/B-A (Caco-2 cells): 2.3

CCC(=O)OC(OC(=O)NC[C@H](CC(=O)[O-])c1ccc(Cl)cc1)C(C)C.[Na+] (stereo partly drawn) [(48), Sodium 4-[(1-Propanoyloxyisobutoxy)carbonylamino]-(3R)-(4-chlorophenyl)-butanoate]
Ratio A-B/B-A (Caco-2 cells): 6.5

CCOC(C)(OCC)C(=O)OCOC(=O)NC[C@H](CC(=O)[O-])c1ccc(Cl)cc1.[Na+] [(51), Sodium 4-[(2,2-Diethoxypropanoyloxymethoxy)carbonylamino]-(3R)-(4-chlorophenyl)-butanoate]
Ratio A-B/B-A (Caco-2 cells): 3.0

COc1ccc(C(=O)OCOC(=O)NC[C@H](CC(=O)[O-])c2ccc(Cl)cc2)cc1.[Na+] [(53), Sodium 4-[(4-Methoxybenzoloxymethoxy)carbonylamino]-(3R)-(4-chlorophenyl)-butan oate]
Ratio A-B/B-A (Caco-2 cells): 2.4

O=C(O)C[C@@H](CNC(=O)OCOC(=O)CCc1ccccc1)c1ccc(Cl)cc1 [(62), Sodium 4-[(3-Phenylpropionoyloxymethoxy)carbonylamino]-(3R)-(4-chlorophenyl)-butanoate]
% of Baclofen Released (pancreatin; [8]): 79% | % of Prodrug Remaining (pancreatin; [8]): 1%

CCCC(OC(=O)NC[C@H](CC(=O)[O-])c1ccc(Cl)cc1)OC(=O)c1ccccc1.[Na+] (stereo partly drawn) [(71), Sodium 4-[(1-Benzoyloxybutoxy)carbonylamino]-(3R)-(4-chlorophenyl)-butanoate]
Ratio A-B/B-A (Caco-2 cells): 7.1

CCCC(OC(=O)NC[C@H](CC(=O)[O-])c1ccc(Cl)cc1)OC(=O)C(C)C.[Na+] (stereo partly drawn) [(72), Sodium 4-[(1-Isobutanoyloxybutoxy)carbonylamino]-(3R)-(4-chlorophenyl)-butanoate]
Ratio A-B/B-A (Caco-2 cells): 3.5

CCCC(=O)OC(CCC)OC(=O)NC[C@H](CC(=O)[O-])c1ccc(Cl)cc1.[Na+] (stereo partly drawn) [(73), Sodium 4-[(1-Butanoyloxybutoxy)carbonylamino]-(3R)-(4-chlorophenyl)-butanoate]
Ratio A-B/B-A (Caco-2 cells): 3.2

CCCC(=O)OC(CC)OC(=O)NC[C@H](CC(=O)[O-])c1ccc(Cl)cc1.[Na+] (stereo partly drawn) [(78), Sodium 4-[(1-Butanoyloxypropoxy)carbonylamino]-(3R)-(4-chlorophenyl)-butanoate]
Ratio A-B/B-A (Caco-2 cells): 7.9

CCCC(=O)O[C@H](CCC)OC(=O)NC[C@H](CC(=O)O)c1ccc(Cl)cc1 [(86), Sodium 4-{[(1S)-Butanoyloxybutoxy]carbonylamino}-(3R)-(4-chlorophenyl)-butanoate]
% of Baclofen Released (pancreatin; [8]): 76% | % of Prodrug Remaining (pancreatin; [8]): 4%

CCCC(=O)O[C@H](OC(=O)NC[C@H](CC(=O)O)c1ccc(Cl)cc1)C(C)C [(90), Sodium 4-{[(1R)-Butanoyloxyisobutoxy]carbonylamino}-(3R)-(4-chlorophenyl)-butanoate]
% of Baclofen Released (pancreatin; [8]): 68% | % of Prodrug Remaining (pancreatin; [8]): 9%

CC(C)C(=O)O[C@@H](OC(=O)NC[C@H](CC(=O)O)c1ccc(Cl)cc1)C(C)C [(104), 4-{[(1S)-Isobutanoyloxyisobutoxy]carbonylamino}-(3R)-(4-chlorophenyl) -butanoic Acid]
% of Baclofen Released (pancreatin; 1 % (w/v) pancreatin, pH 7.5, 37 °C, after 60 min, 60 min): 6% | % of Prodrug Remaining (pancreatin; pig, pancreatin, 1 h, pH 7.5): 90%

NC[C@H](CC(=O)O)c1ccc(Cl)cc1 [R-baclofen, R-(-)-baclofen]
potency relative to orally administered racemic baclofen [7]: about 5 fold
